Source: ChEMBL document CHEMBL1134007, “Synthesis and structure-activity relationships of 1-phenylpyrazoles as xanthine oxidase inhibitors” (Bioorg Med Chem Lett, 2001)

Legend:
[1] = target: T1, Xanthine dehydrogenase/oxidase (Bos taurus, UniProt P80457); test: In vitro inhibitory concentration against Xanthine oxidase
Rattus norvegicus [2] = test: Tested for hypouricemic effect in potassium oxonate (uricase inhibitor) treated (po) rats for 0-24 hr expressed as ED20; format: functional
Rattus norvegicus [3] = test: Tested for hypouricemic effect in potassium oxonate (uricase inhibitor) treated (po)rats for 0-6 hr expressed as ED20; format: functional
[4] = target: T1, Xanthine dehydrogenase/oxidase; test: In vitro percent inhibition against Xanthine oxidase at concentration of 10000 nmol/L
[5] = In vivo CL/F determined; format: ADME, organism-based; conditions: rat
[6] = Tmax determined after 3 mg/kg oral administration in potassium oxonate treated rats; format: ADME, organism-based; set-up: dose 3 mg/kg, route oral; conditions: rat, in vivo
Rattus norvegicus [7] = test: Tested for hypouricemic effect in potassium oxonate (uricase inhibitor) treated (po) rats for 0-6 hr expressed as ED20; format: functional
[8] = Tmax determined after 0.3 mg/kg oral administration in potassium oxonate treated rats; format: ADME, organism-based; set-up: dose 0.3 mg/kg, route oral; conditions: rat, in vivo

T1 sequence (P80457 whole entry): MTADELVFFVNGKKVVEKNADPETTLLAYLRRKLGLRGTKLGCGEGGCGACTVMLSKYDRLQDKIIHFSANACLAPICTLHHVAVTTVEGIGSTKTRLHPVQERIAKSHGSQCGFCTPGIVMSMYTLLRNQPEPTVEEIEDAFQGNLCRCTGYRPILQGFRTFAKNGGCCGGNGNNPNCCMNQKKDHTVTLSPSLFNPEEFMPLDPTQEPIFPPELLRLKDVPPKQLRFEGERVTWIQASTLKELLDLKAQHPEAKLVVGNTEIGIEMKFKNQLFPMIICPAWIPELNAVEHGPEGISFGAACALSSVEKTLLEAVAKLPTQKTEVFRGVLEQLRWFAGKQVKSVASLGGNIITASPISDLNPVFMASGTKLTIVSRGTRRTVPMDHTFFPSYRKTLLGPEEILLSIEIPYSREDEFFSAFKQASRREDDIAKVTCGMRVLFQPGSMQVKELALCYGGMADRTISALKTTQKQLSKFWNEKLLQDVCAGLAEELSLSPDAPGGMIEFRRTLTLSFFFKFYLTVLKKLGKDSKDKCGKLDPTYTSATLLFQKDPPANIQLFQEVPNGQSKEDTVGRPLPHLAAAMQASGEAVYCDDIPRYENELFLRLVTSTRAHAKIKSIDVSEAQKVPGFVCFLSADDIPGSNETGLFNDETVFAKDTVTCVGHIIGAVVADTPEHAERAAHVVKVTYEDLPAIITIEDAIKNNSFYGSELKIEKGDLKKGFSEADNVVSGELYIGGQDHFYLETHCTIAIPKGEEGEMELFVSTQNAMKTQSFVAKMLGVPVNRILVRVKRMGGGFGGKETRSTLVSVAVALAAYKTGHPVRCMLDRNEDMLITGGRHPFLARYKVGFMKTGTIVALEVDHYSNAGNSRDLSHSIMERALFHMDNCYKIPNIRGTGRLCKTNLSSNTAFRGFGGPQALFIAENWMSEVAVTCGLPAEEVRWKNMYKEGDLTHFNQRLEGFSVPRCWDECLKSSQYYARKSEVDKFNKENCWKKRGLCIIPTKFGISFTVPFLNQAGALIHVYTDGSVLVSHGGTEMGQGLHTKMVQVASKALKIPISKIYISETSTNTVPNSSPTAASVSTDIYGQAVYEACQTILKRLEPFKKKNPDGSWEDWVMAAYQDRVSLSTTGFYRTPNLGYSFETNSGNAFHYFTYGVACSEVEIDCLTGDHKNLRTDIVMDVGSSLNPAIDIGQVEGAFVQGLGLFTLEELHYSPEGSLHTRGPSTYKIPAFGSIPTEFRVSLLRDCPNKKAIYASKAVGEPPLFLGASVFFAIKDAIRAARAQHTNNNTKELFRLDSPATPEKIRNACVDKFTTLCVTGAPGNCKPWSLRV

Row | Structure (SMILES) | IC50 [1] | ED20 (Rattus norvegicus [2]) | inhibition at 10 µM [4] | also measured
1 | CN(C)CCOc1ccc(-n2cc(C(=O)O)cn2)cc1C#N | 700 nM | – | – | –
2 | Oc1ncnc2[nH]ncc12 [ALLOPURINOL] | – | > 10 mg/kg | – | ED20 (Rattus norvegicus [3]): 3.5 mg/kg
3 | CCOC(=O)c1cnn(-c2ccc(OCC(C)C)c(C#N)c2)c1 | – | – | < 50% | –
4 | N#Cc1cc(-n2cc(C(=O)O)cn2)ccc1OCC(=O)O | 1500 nM | – | – | –
5 | CC(C)(C)COc1ccc(-n2cc(C(=O)O)cn2)cc1C#N | – | 1.4 mg/kg | – | CL/F [5]: 2 mL/min/kg; Tmax [6]: 3.5 h; ED20 (Rattus norvegicus [7]): 0.55 mg/kg; Tmax [8]: 3.5 h
6 | O=C(O)c1cnn(-c2ccc(Cl)cc2)c1 | – | – | < 50% | –
7 | CC(C)COc1ccc(-n2cc(C(=O)O)cn2)cc1C#N | – | > 10 mg/kg | – | CL/F [5]: 9.83 mL/min/kg; Tmax [6]: 1.3 h; ED20 (Rattus norvegicus [7]): 2.5 mg/kg; Tmax [8]: 1.1 h
8 | COc1ccc(-n2cc(C(=O)O)cn2)cc1 | – | – | < 50% | –
9 | COc1ccc(-n2cc(C(=O)O)cn2)cc1C#N | 460 nM | – | – | –
10 | CC(C)COc1ccc(-n2cc(C(=O)O)cn2)cc1[N+](=O)[O-] | 33 nM | – | – | –
